≈ marks a conversion by molar mass, not a printed value. Blank lines part the entries; values can stand above or below the molecule they belong to.
How the values were obtained:
Test in all cases: Agar dilution MIC
Conditions in all cases: 16-20 hours
[1] = test system: S. saprophyticus MRO 02003; assay type: cell-based
Experimental: (§1) Briefly, the compounds of invention were weighed, dissolved in dimethyl sulfoxide, serially two fold diluted in the same solvent and then incorporated into molten Mueller Hinton Agar (MHA) in a petridish just before solidification, with each petridish containing a different concentration of a compound.
(§2) The bacterial inoculum was prepared by picking 3 to 5 well isolated bacterial colonies with the same morphological appearance from an 18-24 hours old culture with an inoculating loop, transferring the growth to a tube containing 3 mL of normal saline and adjusting the turbidity of the saline suspension to 0.5 Mc Farland Turbidity Standard equivalent to a bacterial population of 1.5×10^8 colony forming units (CFU) per mL of suspension. The suspension was diluted 1:10 in saline (i.e. 0.5 mL suspension 4.5 mL saline) to get a bacterial population of 1.5×10^7 CFU/mL as inoculum.
(§3) The inoculated petridishes were incubated at 35° C. in an ambient atmosphere for 16-20 hours.

[2] = test system: S. epidermidis MRO 002046; assay type: cell-based
Experimental: as §1, §2, §3

S. epidermidis MRO 02002 = assay type: cell-based
Experimental: as §1, §2, §3

[3] = test system: S. haemolyticus MRO 02064; assay type: cell-based
Experimental: as §1, §2, §3

S. epidermidis MRO 02095 = assay type: cell-based
Experimental: as §1, §2, §3

S. epidermidis MRO 02045 = assay type: cell-based
Experimental: as §1, §2, §3

S. aureus MRO 00013 = assay type: cell-based, Staphylococcus aureus
Experimental: as §1, §2, §3

S. aureus MRO 00059 = assay type: cell-based, Staphylococcus aureus
Experimental: as §1, §2, §3

S. aureus MRO 00048 = assay type: cell-based, Staphylococcus aureus
Experimental: as §1, §2, §3

S. aureus MRO 002053 = assay type: cell-based, Staphylococcus aureus
Experimental: as §1, §2, §3

S. aureus ATCC 43300 = assay type: cell-based, Staphylococcus aureus
Experimental: as §1, §2, §3

S. aureus MRO 0003 = assay type: cell-based, Staphylococcus aureus
Experimental: as §1, §2, §3

S. aureus MRO 00055 = assay type: cell-based, Staphylococcus aureus
Experimental: as §1, §2, §3

S. aureus MRO 00030 = assay type: cell-based, Staphylococcus aureus
Experimental: as §1, §2, §3

S. aureus ATCC 29213 = assay type: cell-based, Staphylococcus aureus
Experimental: as §1, §2, §3

S. aureus MRO 0001 = assay type: cell-based, Staphylococcus aureus
Experimental: as §1, §2, §3

[4] = test system: M. catarrhalis ATCC 43617; assay type: cell-based, Moraxella catarrhalis
Experimental: as §1, §2, §3

[5] = test system: M. catarrhalis ATCC 43627; assay type: cell-based, Moraxella catarrhalis
Experimental: as §1, §2, §3

[6] = test system: M. catarrhalis ATCC 43628; assay type: cell-based, Moraxella catarrhalis
Experimental: as §1, §2, §3

E. faecium MRO 04038 = assay type: cell-based, Enterococcus faecium
Experimental: as §1, §2, §3

E. faecium ATCC 700221 = assay type: cell-based, Enterococcus faecium
Experimental: as §1, §2, §3

E. faecium MRO 04198 = assay type: cell-based, Enterococcus faecium
Experimental: as §1, §2, §3

E. faecium MRO 04037 = assay type: cell-based, Enterococcus faecium
Experimental: as §1, §2, §3

E. faecalis MRO 04205 = assay type: cell-based, Enterococcus faecalis
Experimental: as §1, §2, §3

E. faecalis ATCC 51299 = assay type: cell-based, Enterococcus faecalis
Experimental: as §1, §2, §3

E. faecalis ATCC 29212 = assay type: cell-based, Enterococcus faecalis
Experimental: as §1, §2, §3

E. faecalis MRO 04050 = assay type: cell-based, Enterococcus faecalis
Experimental: as §1, §2, §3

E. faecalis MRO 04035 = assay type: cell-based, Enterococcus faecalis
Experimental: as §1, §2, §3

SMILES: COC(=S)NC[C@H]1CN(c2ccc(N3CCN(C(=O)c4ccc([N+](=O)[O-])o4)CC3)c(F)c2)C(=O)O1 [Example 7, (S)—O-Methyl(3-(3-fluoro-4-(4-(5-nitrofuran-2-carbonyl)piperazin-1-yl)phenyl)-2-oxooxazolidin-5-yl)methylcarbamothioate]
Antimicrobial Screening (MIC) ([1]; 35° C.): 0.125 µg/mL
Antimicrobial Screening (MIC) ([2]; 35° C.): 0.03 µg/mL
Antimicrobial Screening (MIC) (S. epidermidis MRO 02002; 35° C.): 0.03 µg/mL
Antimicrobial Screening (MIC) ([3]; 35° C.): 0.125 µg/mL
Antimicrobial Screening (MIC) (S. epidermidis MRO 02095; 35° C.): 0.03 µg/mL
Antimicrobial Screening (MIC) (S. epidermidis MRO 02045; 35° C.): 0.125 µg/mL
Antimicrobial Screening (MIC) (S. aureus MRO 00013; 35° C.): 0.25 µg/mL
Antimicrobial Screening (MIC) (S. aureus MRO 00059; 35° C.): 0.25 µg/mL
Antimicrobial Screening (MIC) (S. aureus MRO 00048; 35° C.): 0.125 µg/mL
Antimicrobial Screening (MIC) (S. aureus MRO 002053; 35° C.): 0.06 µg/mL
Antimicrobial Screening (MIC) (S. aureus ATCC 43300; 35° C.): 0.125 µg/mL
Antimicrobial Screening (MIC) (S. aureus MRO 0003; 35° C.): 0.25 µg/mL
Antimicrobial Screening (MIC) (S. aureus MRO 00055; 35° C.): 0.25 µg/mL
Antimicrobial Screening (MIC) (S. aureus MRO 00030; 35° C.): 0.125 µg/mL
Antimicrobial Screening (MIC) (S. aureus ATCC 29213; 35° C.): 0.125 µg/mL
Antimicrobial Screening (MIC) (S. aureus MRO 0001; 35° C.): 0.125 µg/mL
Antimicrobial Screening (MIC) ([4]; 35° C.): 0.25 µg/mL
Antimicrobial Screening (MIC) ([5]; 35° C.): 0.25 µg/mL
Antimicrobial Screening (MIC) ([6]; 35° C.): 0.25 µg/mL
Antimicrobial Screening (MIC) (E. faecium MRO 04038; 35° C.): 0.125 µg/mL
Antimicrobial Screening (MIC) (E. faecium ATCC 700221; 35° C.): 0.125 µg/mL
Antimicrobial Screening (MIC) (E. faecium MRO 04198; 35° C.): 0.25 µg/mL
Antimicrobial Screening (MIC) (E. faecium MRO 04037; 35° C.): 0.25 µg/mL
Antimicrobial Screening (MIC) (E. faecalis MRO 04205; 35° C.): 0.125 µg/mL
Antimicrobial Screening (MIC) (E. faecalis ATCC 51299; 35° C.): 0.125 µg/mL
Antimicrobial Screening (MIC) (E. faecalis ATCC 29212; 35° C.): 0.125 µg/mL
Antimicrobial Screening (MIC) (E. faecalis MRO 04050; 35° C.): 0.125 µg/mL
Antimicrobial Screening (MIC) (E. faecalis MRO 04035; 35° C.): 0.125 µg/mL

MIC ([1]; Staphylococcus saprophyticus, MRO02003, 35° C., read-out: Antimicrobial Screening (MIC)): 1 µg/mL (≈ 2.29 µM)
MIC ([2]; Staphylococcus epidermidis, MRO002046, 35° C., read-out: Antimicrobial Screening (MIC)): 0.5 µg/mL (≈ 1.15 µM)
MIC (S. epidermidis MRO 02002; Staphylococcus epidermidis, MRO02002, 35° C., read-out: Antimicrobial Screening (MIC)): 1 µg/mL (≈ 2.29 µM)
MIC (S. epidermidis MRO 02095; Staphylococcus epidermidis, MRO02095, 35° C., read-out: Antimicrobial Screening (MIC)): 0.5 µg/mL (≈ 1.15 µM)
MIC (S. epidermidis MRO 02045; Staphylococcus epidermidis, MRO02045, 35° C., read-out: Antimicrobial Screening (MIC)): 1 µg/mL (≈ 2.29 µM)
MIC (S. aureus MRO 00013; Staphylococcus aureus, MRO00013, 35° C., read-out: Antimicrobial Screening (MIC)): 1 µg/mL (≈ 2.29 µM)
MIC (S. aureus MRO 00059; Staphylococcus aureus, MRO00059, 35° C., read-out: Antimicrobial Screening (MIC)): 0.5 µg/mL (≈ 1.15 µM)
MIC (S. aureus MRO 00048; Staphylococcus aureus, MRO00048, 35° C., read-out: Antimicrobial Screening (MIC)): 0.5 µg/mL (≈ 1.15 µM)
MIC (S. aureus MRO 002053; Staphylococcus aureus, MRO002053, 35° C., read-out: Antimicrobial Screening (MIC)): 0.5 µg/mL (≈ 1.15 µM)
MIC (S. aureus ATCC 43300; Staphylococcus aureus, ATCC43300, 35° C., read-out: Antimicrobial Screening (MIC)): 0.5 µg/mL (≈ 1.15 µM)
MIC (S. aureus MRO 0003; Staphylococcus aureus, MRO0003, 35° C., read-out: Antimicrobial Screening (MIC)): 1 µg/mL (≈ 2.29 µM)
MIC (S. aureus MRO 00055; Staphylococcus aureus, MRO00055, 35° C., read-out: Antimicrobial Screening (MIC)): 1 µg/mL (≈ 2.29 µM)
MIC (S. aureus MRO 00030; Staphylococcus aureus, MRO00030, 35° C., read-out: Antimicrobial Screening (MIC)): 1 µg/mL (≈ 2.29 µM)
MIC (S. aureus ATCC 29213; Staphylococcus aureus, ATCC29213, 35° C., read-out: Antimicrobial Screening (MIC)): 1 µg/mL (≈ 2.29 µM)
MIC (S. aureus MRO 0001; Staphylococcus aureus, MRO0001, 35° C., read-out: Antimicrobial Screening (MIC)): 0.5 µg/mL (≈ 1.15 µM)
MIC ([4]; Moraxella catarrhalis, ATCC43617, 35° C., read-out: Antimicrobial Screening (MIC)): 1 µg/mL (≈ 2.29 µM)
MIC ([5]; Moraxella catarrhalis, ATCC43627, 35° C., read-out: Antimicrobial Screening (MIC)): 2 µg/mL (≈ 4.58 µM)
MIC ([6]; Moraxella catarrhalis, ATCC43628, 35° C., read-out: Antimicrobial Screening (MIC)): 2 µg/mL (≈ 4.58 µM)
MIC (E. faecium MRO 04038; Enterococcus faecium, MRO04038, 35° C., read-out: Antimicrobial Screening (MIC)): 0.5 µg/mL (≈ 1.15 µM)
MIC (E. faecium ATCC 700221; Enterococcus faecium, ATCC700221, 35° C., read-out: Antimicrobial Screening (MIC)): 0.5 µg/mL (≈ 1.15 µM)
MIC (E. faecium MRO 04198; Enterococcus faecium, MRO04198, 35° C., read-out: Antimicrobial Screening (MIC)): 0.5 µg/mL (≈ 1.15 µM)
MIC (E. faecium MRO 04037; Enterococcus faecium, MRO04037, 35° C., read-out: Antimicrobial Screening (MIC)): 0.5 µg/mL (≈ 1.15 µM)
MIC (E. faecalis MRO 04205; Enterococcus faecalis, MRO04205, 35° C., read-out: Antimicrobial Screening (MIC)): 0.5 µg/mL (≈ 1.15 µM)
MIC (E. faecalis ATCC 51299; Enterococcus faecalis, ATCC51299, 35° C., read-out: Antimicrobial Screening (MIC)): 0.5 µg/mL (≈ 1.15 µM)
MIC (E. faecalis ATCC 29212; Enterococcus faecalis, ATCC29212, 35° C., read-out: Antimicrobial Screening (MIC)): 0.5 µg/mL (≈ 1.15 µM)
MIC (E. faecalis MRO 04050; Enterococcus faecalis, MRO04050, 35° C., read-out: Antimicrobial Screening (MIC)): 0.5 µg/mL (≈ 1.15 µM)
MIC (E. faecalis MRO 04035; Enterococcus faecalis, MRO04035, 35° C., read-out: Antimicrobial Screening (MIC)): 0.5 µg/mL (≈ 1.15 µM)
SMILES: COC(=S)NC[C@H]1CN(c2ccc(N3CCN(C(=O)C4CC4)CC3)c(F)c2)C(=O)O1 [Example 47, (S)—O-Methyl (3-(4-(4-(cyclopropanecarbonyl)piperazin-1-yl)-3-fluorophenyl)-2-oxooxazolidin-5-yl)methylcarbamothioate]
MIC ([3]; Staphylococcus haemolyticus, MRO02064, 35° C., read-out: Antimicrobial Screening (MIC)): 0.5 µg/mL (≈ 1.15 µM)

— US20100234390A1, “NOVEL COMPOUND AND THEIR USE” (priority 2007, published 2010)
